Experimental data taken from ChEMBL document CHEMBL6127105, “Immunosuppressive Breviane Spiroditerpenoids from Penicillium bialowiezense Isolated from a Medicinal Plant” (J Nat Prod, 2024).

Assays:
[1] = Immunosuppressive activity against ConA induced T-cells proliferation; assay type: functional, cell-based; settings: T-cell
[2] = Immunosuppressive activity against LPS induced B-cells proliferation; assay type: functional, cell-based; settings: B-cell

## CC1=C[C@H](O)[C@@H]2[C@@]3(C)CC[C@H](O)C(C)(C)[C@@H]3CC[C@@]2(C)[C@]12Cc1c(c(C)c(C)oc1=O)O2
[1]
  IC50: 4.1 µM
[2]
  IC50: 4.6 µM

## CC1=C[C@H](O)[C@@H]2[C@@]3(C)C=CC(=O)C(C)(C)[C@@H]3CC[C@@]2(C)[C@]12Cc1c(c(C)c(C)oc1=O)O2
[1]
  IC50: 4.7 µM
[2]
  IC50: 7.5 µM

## CC1=C[C@H](O)[C@@H]2[C@@]3(C)[C@H](O)CC(=O)C(C)(C)[C@@H]3CC[C@@]2(C)[C@]12Cc1c(c(C)c(C)oc1=O)O2
[1]
  IC50: 12 µM
[2]
  IC50: 13 µM

## CC1=C[C@H](O)[C@@H]2[C@@]3(C)[C@H](O)[C@@H](O)[C@H](O)C(C)(C)[C@@H]3CC[C@@]2(C)[C@]12Cc1c(c(C)c(C)oc1=O)O2
[1]
  IC50: 7.3 µM
[2]
  IC50: 6.3 µM

## CC1=CC[C@@H]2[C@@]3(C)C=CC(=O)C(C)(C)[C@@H]3CC[C@@]2(C)[C@]12Cc1c(c(C)c(C)oc1=O)O2
[1]
  IC50: 4.8 µM
[2]
  IC50: 6.7 µM

## CC1=CC[C@@H]2[C@@]3(C)CCC(=O)C(C)(C)[C@@H]3CC[C@@]2(C)[C@]12Cc1c(c(C)c(C)oc1=O)O2
[1]
  IC50: 17 µM
[2]
  IC50: 17 µM

## CC1=C[C@H](O)[C@@H]2[C@@]3(C)CCC(=O)C(C)(C)[C@@H]3CC[C@@]2(C)[C@]12Cc1c(c(C)c(C)oc1=O)O2
[1]
  IC50: 11 µM
[2]
  IC50: 18 µM
